Laboratory results as given in ChEMBL document CHEMBL1275582, “Role of the Ser-287-Asn replacement in the hydrolysis spectrum extension of AmpC beta-lactamases in Escherichia coli” (2009).
Values after ≈ are worked out from the molar mass of the structure shown.

Key:
Escherichia coli [1] = assay: Antibacterial activity against Escherichia coli TOP10 expressing AmpC-A by agar dilution method; assay type: functional
Escherichia coli [2] = assay: Antibacterial activity against Escherichia coli TOP10 expressing AmpC-B2 S287N mutant protein by agar dilution method; assay type: functional
Escherichia coli [3] = assay: Antibacterial activity against Escherichia coli TOP10 expressing AmpC-A by agar dilution method in presence of 2 mg/liter clavulanic acid; assay type: functional
Escherichia coli [4] = assay: Antibacterial activity against Escherichia coli TOP10 expressing AmpC-B2 by agar dilution method in presence of 2 mg/liter clavulanic acid; assay type: functional
Escherichia coli [5] = assay: Antibacterial activity against Escherichia coli TOP10 expressing AmpC-B2 by agar dilution method; assay type: functional
Escherichia coli [6] = assay: Antibacterial activity against Escherichia coli TOP10 expressing AmpC-B2 S287N mutant protein by agar dilution method in presence of 2 mg/liter clavulanic acid; assay type: functional
Escherichia coli [7] = assay: Antibacterial activity against Escherichia coli TOP10 expressing AmpC-A S287N mutant protein by agar dilution method in presence of 2 mg/liter clavulanic acid; assay type: functional
Escherichia coli [8] = assay: Antibacterial activity against Escherichia coli TOP10 by agar dilution method in presence of 2 mg/liter clavulanic acid; assay type: functional
Escherichia coli [9] = assay: Antibacterial activity against Escherichia coli TOP10 expressing AmpC-A S287N mutant protein by agar dilution method; assay type: functional
Escherichia coli [10] = assay: Antibacterial activity against Escherichia coli TOP10 by agar dilution method; assay type: functional
Escherichia coli [11] = assay: Activity of Escherichia coli TOP10 beta-lactamase AmpC-A S287N mutant
Escherichia coli [12] = assay: Activity of Escherichia coli TOP10 beta-lactamase AmpC-A
Escherichia coli [13] = assay: Activity of Escherichia coli TOP10 beta-lactamase AmpC-B2
Escherichia coli [14] = assay: Activity of Escherichia coli TOP10 beta-lactamase AmpC-B2 S287N mutant
Escherichia coli [15] = assay: Antibacterial activity against Escherichia coli TOP10 expressing AmpC-B2 by agar dilution method in presence of 4 mg/liter Tazobactam; assay type: functional
Escherichia coli [16] = assay: Antibacterial activity against Escherichia coli TOP10 expressing AmpC-A by agar dilution method in presence of 4 mg/liter Tazobactam; assay type: functional
Escherichia coli [17] = assay: Antibacterial activity against Escherichia coli TOP10 expressing AmpC-B2 S287N mutant protein by agar dilution method in presence of 4 mg/liter Tazobactam; assay type: functional
Escherichia coli [18] = assay: Antibacterial activity against Escherichia coli TOP10 by agar dilution method in presence of 4 mg/liter Tazobactam; assay type: functional
Escherichia coli [19] = assay: Antibacterial activity against Escherichia coli TOP10 expressing AmpC-A S287N mutant protein by agar dilution method in presence of 4 mg/liter Tazobactam; assay type: functional

Row | SMILES | MIC (Escherichia coli [1]) [µg/mL] | MIC (Escherichia coli [2]) [µg/mL] | MIC (Escherichia coli [5]) [µg/mL] | MIC (Escherichia coli [9]) [µg/mL] | MIC (Escherichia coli [10]) [µg/mL] | Km (Escherichia coli [11]) [µM] | kcat (Escherichia coli [11]) [s⁻¹] | Km (Escherichia coli [12]) [µM] | kcat (Escherichia coli [12]) [s⁻¹] | Km (Escherichia coli [13]) [µM] | kcat (Escherichia coli [13]) [s⁻¹] | kcat (Escherichia coli [14]) [s⁻¹] | Km (Escherichia coli [14]) [µM] | also measured
1 | CC1(C)S[C@@H]2[C@H](NC(=O)[C@H](C(=O)O)c3ccsc3)C(=O)N2[C@H]1C(=O)O [TICARCILLIN] | 2 (≈ 5.2 µM) | 64 (≈ 166 µM) | 2 (≈ 5.2 µM) | 256 (≈ 666 µM) | 1 (≈ 2.6 µM) |  |  |  |  |  |  |  |  | MIC (Escherichia coli [3]): 2 µg/mL; MIC (Escherichia coli [4]): 2 µg/mL; MIC (Escherichia coli [6]): 64 µg/mL; MIC (Escherichia coli [7]): 256 µg/mL; MIC (Escherichia coli [8]): 1 µg/mL
2 | CC(=O)OCC1=C(C(=O)O)N2C(=O)[C@@H](NC(=O)Cc3cccs3)[C@H]2SC1 [CEPHALOTHIN] | > 512 |  | > 512 |  | 2 (≈ 5.04 µM) | 5500 | 65 | 30 | 500 | 85 | 540 | 10 |  | 
3 | CO[C@@]1(NC(=O)Cc2cccs2)C(=O)N2C(C(=O)O)=C(COC(N)=O)CS[C@@H]21 [CEFOXITIN] | 128 (≈ 299 µM) | 128 (≈ 299 µM) | 128 (≈ 299 µM) | 32 (≈ 74.9 µM) | 2 (≈ 4.68 µM) | 700 | 0.1 | 1 | 0.3 | 1.5 | 0.4 | 0.08 | 800 | 
4 | C[C@H]1[C@H](NC(=O)/C(=N\OC(C)(C)C(=O)O)c2csc(N)n2)C(=O)N1S(=O)(=O)O [AZTREONAM] | 0.125 (≈ 0.287 µM) |  | 0.06 (≈ 0.138 µM) | 16 (≈ 36.7 µM) |  |  |  |  |  |  |  |  |  | 
5 | O=C(Cc1cccs1)N[C@@H]1C(=O)N2C(C(=O)[O-])=C(C[n+]3ccccc3)CS[C@H]12 |  |  |  |  |  |  | 50 |  | 230 |  | 240 | 112 |  | 
6 | CCN1CCN(C(=O)N[C@@H](C(=O)N[C@@H]2C(=O)N3[C@@H]2SC(C)(C)[C@@H]3C(=O)O)c2ccccc2)C(=O)C1=O [PIPERACILLIN] | 4 (≈ 7.73 µM) | 4 (≈ 7.73 µM) | 2 (≈ 3.86 µM) | 8 (≈ 15.5 µM) | 1 (≈ 1.93 µM) |  |  |  |  |  |  |  |  | MIC (Escherichia coli [15]): 4 µg/mL; MIC (Escherichia coli [16]): 4 µg/mL; MIC (Escherichia coli [17]): 4 µg/mL; MIC (Escherichia coli [18]): 1 µg/mL; MIC (Escherichia coli [19]): 8 µg/mL
7 | CC1(C)S[C@@H]2[C@H](NC(=O)[C@H](N)c3ccc(O)cc3)C(=O)N2[C@H]1C(=O)O [AMOXICILLIN] | > 512 |  | > 512 |  | 2 (≈ 5.47 µM) |  |  |  |  |  |  |  |  | MIC (Escherichia coli [3]): > 512 µg/mL; MIC (Escherichia coli [4]): 256 µg/mL; MIC (Escherichia coli [6]): 512 µg/mL; MIC (Escherichia coli [7]): 512 µg/mL; MIC (Escherichia coli [8]): 2 µg/mL
8 | CO/N=C(\C(=O)N[C@@H]1C(=O)N2C(C(=O)O)=C(COC(C)=O)CS[C@H]12)c1csc(N)n1 [CEFOTAXIME] | 1 (≈ 2.2 µM) | 1 (≈ 2.2 µM) | 0.5 (≈ 1.1 µM) | 16 (≈ 35.1 µM) | 0.06 (≈ 0.132 µM) | 100 | 0.08 | 25 | 0.2 | 45 | 0.1 | 0.045 | 1000 | 
9 | CO/N=C(\C(=O)N[C@@H]1C(=O)N2C(C(=O)[O-])=C(C[N+]3(C)CCCC3)CS[C@H]12)c1csc(N)n1 [CEFEPIME] | 0.06 (≈ 0.125 µM) |  | 0.06 (≈ 0.125 µM) | 16 (≈ 33.3 µM) |  |  | 1.35 |  |  |  |  | 0.25 |  | 
10 | C[C@@H](O)[C@H]1C(=O)N2C(C(=O)O)=C(SCCNC=N)C[C@H]12 [IMIPENEM ANHYDROUS] | 0.06 (≈ 0.2 µM) | 0.06 (≈ 0.2 µM) | 0.06 (≈ 0.2 µM) | 0.06 (≈ 0.2 µM) |  | 200 | 0.06 |  |  | 32 | 0.09 | 0.06 | 2000 | 
11 | CC(C)(O/N=C(\C(=O)N[C@@H]1C(=O)N2C(C(=O)[O-])=C(C[n+]3ccccc3)CS[C@H]12)c1csc(N)n1)C(=O)O [CEFTAZIDIME] | 2 (≈ 3.66 µM) | 4 (≈ 7.32 µM) | 1 (≈ 1.83 µM) | 512 (≈ 937 µM) | 0.06 (≈ 0.11 µM) | 400 | 0.2 | 70 | 0.5 |  | 0.3 | 0.01 | 1000 | 
